Laboratory results as given in patent US9757383B2, “Cyclohexylamine derivatives having β2 adrenergic agonist and M3 muscarinic antagonist activities” (ALMIRALL, S.A., priority 2011, dated 2017).

Key:
[1] = target: human adrenergic beta2 receptor (Homo sapiens (Human), UniProt P07550); assay: Human adrenergic β2 receptor binding assay (3H-CGP12177, Sf9 cell membranes); conditions: 0.6 nM 3H-CGP12177, membranes from Sf9 cells
Procedure: Test 1: Human Adrenergic β1 and β2 Receptor Binding Assays
The study of binding to human adrenergic beta1 and beta2 receptors was performed using commercial membranes prepared from Sf9 cells where they are overexpressed (Perkin Elmer). The membrane suspensions (16 μg/well for beta1 and 5 μg/well for beta2) in assay buffer (75 mM Tris/HCl with 12.5 mM MgCl2 and 2 mM EDTA pH=7.4) were incubated with 0.14 or 0.6 nM of 3H-CGP12177 (Amersham) for beta 1 and beta 2 receptors respectively in a final volume of 250 μl, in GFC Multiscreen 96 well plates (Millipore) previously treated with assay buffer containing 0.3% PEI (Sigma). Non specific binding was measured in the presence of 1 μM propanolol. Incubation was maintained for 60 minutes at room temperature and with gentle shaking. The binding reactions were terminated by filtration and washing with 2.5 volumes of Tris/HCl 50 mM pH=7.4. The affinity of each test compound to the receptor was determined by using ten different concentrations ran in duplicate. IC50s were calculated using Activity Base software from IDBS and the four parameters-log equation.

[2] = target: human muscarinic M3 receptor (Homo sapiens (Human), UniProt P20309); assay: Human muscarinic M3 receptor binding assay ([3H]-NMS, CHO-K1 cell membranes); conditions: 1 nM [3H]-NMS, membranes from CHO-K1 cells
Procedure: Test 2: Human Muscarinic M1, M2, M3, M4 and M5 Receptors Binding Assays
The study of binding to human muscarinic M1, M2, M3, M4 and M5 receptors was performed using commercial membranes (Perkin Elmer) prepared from CHO-K1 cells. Radioligand binding experiments were conducted in 96 polypropylene well plates in a total volume of 200 μl. All reagents were dissolved in assay binding buffer (PBS with calcium and magnesium, SIGMA), except compounds that were dissolved in DMSO 100%. Non-specific binding (NSB) was measured in the presence of 1 μM atropine. [3H]-NMS was used as the radioligand at a concentration of 1 nM for M2, M3 and M5 and 0.3 nM for M1 and M4. […]
After an incubation period of two hours with gentle shaking, 150 μl of the reaction mix were transferred to 96 GF/C filter plates (Millipore), previously treated with wash buffer (Tris 50 mM; NaCl 100 mM; pH: 7.4), containing 0.05% PEI (Sigma) during one hour. […] After drying 30 min, 30 μl of OPTIPHASE Supermix were added to each well and radioactivity quantified using a Microbeta microplate scintillation counter.
The affinity of each test compound to the receptors was determined by using ten different concentrations ran in duplicate. IC50s were calculated using Activity Base software from IDBS and the four parameters-log equation.

human muscarinic M3 receptor, sequence (P20309 whole entry): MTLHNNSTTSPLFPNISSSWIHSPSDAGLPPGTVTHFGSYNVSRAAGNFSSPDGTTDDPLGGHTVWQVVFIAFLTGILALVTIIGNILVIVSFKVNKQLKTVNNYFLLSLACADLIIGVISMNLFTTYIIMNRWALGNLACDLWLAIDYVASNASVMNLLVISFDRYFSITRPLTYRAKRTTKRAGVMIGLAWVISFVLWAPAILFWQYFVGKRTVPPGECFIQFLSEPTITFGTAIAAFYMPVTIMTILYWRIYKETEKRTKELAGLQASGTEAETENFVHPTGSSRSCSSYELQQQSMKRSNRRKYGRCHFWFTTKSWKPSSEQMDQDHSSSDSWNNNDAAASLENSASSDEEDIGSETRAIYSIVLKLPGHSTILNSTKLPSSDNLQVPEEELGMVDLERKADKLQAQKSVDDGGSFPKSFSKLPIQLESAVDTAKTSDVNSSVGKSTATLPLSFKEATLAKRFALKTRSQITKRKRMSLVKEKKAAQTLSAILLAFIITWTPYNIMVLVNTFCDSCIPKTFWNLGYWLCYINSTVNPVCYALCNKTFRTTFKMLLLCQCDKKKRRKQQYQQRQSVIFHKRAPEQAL

Compound | IC50 [1] [nM] | IC50 [2] [nM]
CN(CCCn1c(=O)[nH]c2cc(CNC[C@H](O)c3ccc(O)c4[nH]c(=O)ccc34)ccc21)[C@H]1CC[C@H](OC(=O)C(O)(c2cccs2)c2cccs2)CC1 (relative stereo) [Example 2, trans-4-[{3-[5-({[(2R)-2-hydroxy-2-(8-hydroxy-2-oxo-1,2-dihydroquinolin-5-yl)ethyl]amino}methyl)-2-oxo-2,3-dihydro-H-benzimidazol-1-yl]propyl}(methyl)amino]cyclohexyl hydroxy(di-2-thienyl)acetate dihydrofluoride] | 120 | 0.4
trans-4-{[2-({2-[4-(2-{[(2R)-2-hydroxy-2-(8-hydroxy-2-oxo-1,2-dihydroquinolin-5-yl)ethyl]amino}propyl)phenoxy]acetyl}amino)ethyl]amino}cyclohexyl hydroxy(di-2-thienyl)acetate dihydrofluoride [Example 20] | 3.1 | 3.6
